“And” between values parts separate entries of the source, which are not always exact repeats. Equal values may be shown once. Toxic doses and inconclusive results are not listed. Where a SMILES comes first, the peptide text is derived from it. The star is where a group is joined. Cbz = O=C(OCc1ccccc1)*
Test system: B6C3F1 mice, B16 melanoma ip, median survival T/C
Assay: NCI In Vivo Anticancer Drug Screen. Data for tumor model B16 Melanoma (intraperitoneal) in B6C3F1 mice
Conditions: endpoint: median survival time, schedule: Q01DX009 (ip), higher = longer survival
Method in brief: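 Tumor-bearing mice received test compound; a separate group got vehicle only. Survival was then compared, with results reported as treated over control.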

[1] = dose: 1.56 mg/kg/injection, vehicle: saline with Tween-80
[2] = dose: 3.12 mg/kg/injection, vehicle: saline with Tween-80
[3] = dose: 6.25 mg/kg/injection, vehicle: saline
[4] = dose: 100.0 mg/kg/injection, vehicle: saline with Tween-80
[5] = dose: 12.5 mg/kg/injection, vehicle: saline
[6] = dose: 25.0 mg/kg/injection, vehicle: saline
[7] = dose: 50.0 mg/kg/injection, vehicle: saline
[8] = dose: 100.0 mg/kg/injection, vehicle: saline
[9] = dose: 200.0 mg/kg/injection, vehicle: saline
[10] = dose: 12.5 mg/kg/injection, vehicle: saline with Tween-80
[11] = dose: 25.0 mg/kg/injection, vehicle: saline with Tween-80
[12] = dose: 50.0 mg/kg/injection, vehicle: saline with Tween-80
[13] = dose: 200.0 mg/kg/injection, vehicle: saline with Tween-80
[14] = dose: 25.0 mg/kg/injection, vehicle: Klucel (hydroxypropylcellulose) (HPC)
[15] = dose: 1.56 mg/kg/injection, vehicle: saline
[16] = dose: 3.12 mg/kg/injection, vehicle: saline
[17] = dose: 10.0 mg/kg/injection, vehicle: saline
[18] = dose: 40.0 mg/kg/injection, vehicle: saline
[19] = dose: 6.25 mg/kg/injection, vehicle: saline with Tween-80
[20] = dose: 50.0 mg/kg/injection, vehicle: Klucel (hydroxypropylcellulose) (HPC)
[21] = dose: 12.5 mg/kg/injection, vehicle: suspension in saline
[22] = dose: 25.0 mg/kg/injection, vehicle: suspension in saline
[23] = dose: 50.0 mg/kg/injection, vehicle: suspension in saline
[24] = dose: 100.0 mg/kg/injection, vehicle: suspension in saline
[25] = dose: 100.0 mg/kg/injection, vehicle: Klucel (hydroxypropylcellulose) (HPC)

With `CO[C@@H]1[C@H](O)CC[C@]2(CO2)[C@H]1[C@@]1(C)O[C@@H]1CC=C(C)C` the T/C [1] was 102 % of control and 105 % of control, the T/C [2] was 108 % of control and 109 % of control and 122 % of control and the T/C (dose: 3.13 mg/kg/injection, vehicle: saline) was 108 % of control. For the same compound, the T/C [3] was 111 % of control and the T/C [4] was 104 % of control.

`COc1cccc2c1C(=O)c1c(O)c3c(c(O)c1C2=O)C[C@@](O)(C(C)=O)C[C@@H]3OC1CC(N(Cc2ccccc2)Cc2ccccc2)C(O)C(C)O1` (some centres not stated) was tested, and the T/C (dose: 1.5 mg/kg/injection, vehicle: saline with Tween-80) was 100 % of control, the T/C (dose: 1.5 mg/kg/injection, vehicle: water) was 112 % of control and the T/C (dose: 3.0 mg/kg/injection, vehicle: saline with Tween-80) was 111 % of control. The T/C (dose: 3.0 mg/kg/injection, vehicle: water) was 116 % of control, the T/C (dose: 12.0 mg/kg/injection, vehicle: saline with Tween-80) was 156 % of control and the T/C (dose: 12.0 mg/kg/injection, vehicle: water) was 151 % of control.

For `Cc1nnc2ncccn12`, the T/C [5] was 97 % of control and 106 % of control, the T/C [6] was 96 % of control and 103 % of control and the T/C [7] was 98 % of control and 100 % of control. For the same compound, the T/C [8] was 97 % of control and 103 % of control, the T/C [9] was 94 % of control and 97 % of control and the T/C (dose: 400.0 mg/kg/injection, vehicle: saline) was 90 % of control and 102 % of control.

In the case of `CC[C@H](CC[C@@H](C)C1CC[C@H]2[C@@H]3CC=C4C[C@@H](OP(=O)(N5CC5)N5CC5)CC[C@]4(C)[C@H]3CC[C@]12C)C(C)C` (some centres not stated), the T/C [10] is reported as 95 % of control and 99 % of control, the T/C [11] is reported as 110 % of control and 101 % of control and the T/C [12] is reported as 90 % of control and 97 % of control. For the same compound, the T/C [4] was 91 % of control and 94 % of control and the T/C [13] was 93 % of control and 95 % of control.

In the case of `CCC(=O)[O][Bi]([c]1ccccc1)[c]1ccccc1`, the T/C [14] is reported as 92 % of control.

In the case of `C[C@H](CCC[C@H](C)OS(=O)(=O)c1ccccc1)OS(=O)(=O)c1ccccc1`, the T/C [10] is reported as 122 % of control and 101 % of control, the T/C [11] is reported as 207 % of control and 97 % of control and the T/C (dose: 400.0 mg/kg/injection, vehicle: saline with Tween-80) is reported as 194 % of control.

With `COc1ccc(C(=O)C(CN(C)C)CN(C)C)cc1` the T/C [15] was 92 % of control, the T/C [16] was 96 % of control and the T/C [3] was 94 % of control. The T/C [5] was 97 % of control and the T/C [6] was 102 % of control.

In the case of `NCC1CCC(C(=O)O)CC1` (configuration not stated), the T/C [10] is reported as 102 % of control, the T/C [11] is reported as 101 % of control and the T/C [12] is reported as 101 % of control. For the same compound, the T/C [4] was 101 % of control and the T/C [13] was 94 % of control.

With `CC1CCOS(=O)O1` (configuration not stated) the T/C [17] was 104 % of control, the T/C (dose: 20.0 mg/kg/injection, vehicle: saline) was 123 % of control and the T/C [18] was 110 % of control.

For `C=C1C(=O)C23[C@H](O)C1CC[C@H]2[C@]12COC3(O)[C@@H](O)[C@@H]1C(C)(C)CC[C@@H]2O`, the T/C [1] was 98 % of control, the T/C [2] was 106 % of control and the T/C (dose: 4.5 mg/kg/injection, vehicle: Klucel (hydroxypropylcellulose) (HPC)) was 97 % of control. For the same compound, the T/C [19] was 115 % of control, the T/C (dose: 9.0 mg/kg/injection, vehicle: Klucel (hydroxypropylcellulose) (HPC)) was 93 % of control and the T/C [10] was 108 % of control. The T/C (dose: 18.0 mg/kg/injection, vehicle: Klucel (hydroxypropylcellulose) (HPC)) was 99 % of control and the T/C [11] was 98 % of control.

`Cc1ccc2c(ccc(CC(=S)[S-])[n+]2C)c1` was tested, and the T/C (dose: 6.25 mg/kg/injection, vehicle: Klucel (hydroxypropylcellulose) (HPC)) was 92 % of control and 93 % of control, the T/C (dose: 12.5 mg/kg/injection, vehicle: Klucel (hydroxypropylcellulose) (HPC)) was 92 % of control and 99 % of control and the T/C [14] was 87 % of control and 88 % of control. The T/C [20] was 89 % of control.

With `CSC(SC)=C1C(=O)NC(=O)NC1=O` the T/C [16] was 111 % of control, the T/C [3] was 101 % of control and the T/C [5] was 90 % of control. For the same compound, the T/C [6] was 96 % of control.

For `CCC(=O)[O-].CCC(=O)[O-].CCC(=O)[O-].CCC(=O)[O-].O=S(=O)(O)O.[Re].[Re]`, the T/C (dose: 64.8 mg/kg/injection, vehicle: suspension in saline) was 93 % of control, the T/C (dose: 108.0 mg/kg/injection, vehicle: suspension in saline) was 86 % of control and the T/C (dose: 300.0 mg/kg/injection, vehicle: suspension in saline) was 86 % of control.

For `O=C(CCCN1CCC(C(O)c2ccc(F)cc2)CC1)c1ccc(F)cc1` (configuration not stated), the T/C [1] was 92 % of control, the T/C [2] was 96 % of control and the T/C [19] was 103 % of control. The T/C [10] was 92 % of control.

With `CC(C)=CCC/C(C)=C\C=N\NS(=O)(=O)c1ccc([N+](=O)[O-])cc1` the T/C [19] was 89 % of control, the T/C [10] was 93 % of control and the T/C [11] was 100 % of control. For the same compound, the T/C [12] was 94 % of control.

With `[Cl][Pt+2][Cl].[NH-]c1ccccc1[NH-]` the T/C (dose: 0.63 mg/kg/injection, vehicle: saline with Tween-80) was 99 % of control, the T/C (dose: 1.25 mg/kg/injection, vehicle: saline with Tween-80) was 111 % of control and the T/C (dose: 5.0 mg/kg/injection, vehicle: saline with Tween-80) was 150 % of control.

For `Nc1nc(=S)c2ncn(C3OC(CO)CC3O)c2[nH]1` (configuration not stated), the T/C (dose: 5.0 mg/kg/injection, vehicle: saline) was 110 % of control, the T/C [17] was 122 % of control and the T/C [18] was 94 % of control.

With `O=C(Nc1ccc(C2=NCCN2)cc1)c1ccc(C(=O)Nc2ccc(C3=NCCN3)cc2)c(Cl)c1` the T/C [1] was 105 % of control, the T/C [15] was 115 % of control and the T/C [2] was 98 % of control. For the same compound, the T/C [16] was 89 % of control, the T/C [19] was 100 % of control and the T/C [3] was 100 % of control. The T/C [10] was 93 % of control, the T/C [5] was 93 % of control and the T/C [11] was 110 % of control. For the same compound, the T/C [6] was 94 % of control, the T/C [12] was 110 % of control and the T/C [7] was 99 % of control.

`CCCCCC#CC1OC12CCCCC2` (configuration not stated) was tested, and the T/C [10] was 100 % of control, the T/C [5] was 99 % of control and the T/C [11] was 100 % of control. The T/C [6] was 105 % of control, the T/C [12] was 108 % of control and the T/C [7] was 104 % of control. The T/C [4] was 100 % of control, the T/C [8] was 97 % of control and the T/C [13] was 93 % of control. For the same compound, the T/C [9] was 95 % of control.

In the case of `O=c1[nH]cnc2[nH]ncc12`, the T/C [21] is reported as 103 % of control, the T/C [22] is reported as 112 % of control and the T/C [23] is reported as 97 % of control. For the same compound, the T/C [24] was 88 % of control.

In the case of `O=c1[nH]c(=O)n([C@H]2CCCO2)cc1F`, the T/C [21] is reported as 98 % of control, the T/C [22] is reported as 100 % of control and the T/C [23] is reported as 112 % of control. The T/C [24] was 107 % of control and the T/C (dose: 200.0 mg/kg/injection, vehicle: suspension in saline) was 120 % of control.

In the case of `CC[n+]1ccc2c(C)c3[nH]c4ccc(O)cc4c3c(C)c2c1`, the T/C (dose: 0.39 mg/kg/injection, vehicle: saline) is reported as 110 % of control and 114 % of control, the T/C (dose: 0.78 mg/kg/injection, vehicle: saline) is reported as 122 % of control and the T/C [15] is reported as 123 % of control.

In the case of `O=C(NC(Cc1cnc[nH]1)C(=O)NC(Cc1ccc(O)cc1)C(=O)O)OCc1ccccc1` (stereo not drawn) (Cbz-His-Tyr-OH; configuration not given here), the T/C [25] is reported as 102 % of control, the T/C (dose: 200.0 mg/kg/injection, vehicle: Klucel (hydroxypropylcellulose) (HPC)) is reported as 103 % of control and the T/C (dose: 400.0 mg/kg/injection, vehicle: Klucel (hydroxypropylcellulose) (HPC)) is reported as 110 % of control.

With `CC(C)(C)OC(=O)NCCCCC(NC(=O)OCc1ccccc1)C(=O)O` (configuration not stated) the T/C [14] was 109 % of control, the T/C [20] was 94 % of control and the T/C [25] was 98 % of control.

Reference: PubChem BioAssay AID200 (DTP/NCI, 2004)
